Target: T1, human M4 receptor (Homo sapiens, UniProt P08173)
T1 construct: expressed in transfected cells; host or cells: CHO cells
T1 sequence (P08173 1-479): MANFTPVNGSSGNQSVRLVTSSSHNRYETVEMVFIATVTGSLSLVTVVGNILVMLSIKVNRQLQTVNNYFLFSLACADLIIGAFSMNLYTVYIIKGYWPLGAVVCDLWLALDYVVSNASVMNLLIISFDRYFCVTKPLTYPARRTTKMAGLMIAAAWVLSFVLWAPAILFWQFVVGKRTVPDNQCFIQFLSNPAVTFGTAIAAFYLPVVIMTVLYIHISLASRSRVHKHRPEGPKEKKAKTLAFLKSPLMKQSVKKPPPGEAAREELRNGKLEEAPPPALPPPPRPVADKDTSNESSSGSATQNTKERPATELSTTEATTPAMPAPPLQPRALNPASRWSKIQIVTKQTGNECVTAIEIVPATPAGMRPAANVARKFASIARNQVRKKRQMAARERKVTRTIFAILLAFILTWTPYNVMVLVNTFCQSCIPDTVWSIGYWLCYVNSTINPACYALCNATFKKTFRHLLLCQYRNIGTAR
Test: Radioligand ([3H]N-methylscopolamine) binding assay, membranes from CHO cells expressing human M4 receptor
Conditions: Ki against human M4 receptor; membranes from CHO cells; tritiated N-methylscopolamine 1.5 nM; read-out: K
Outline: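 Competition binding used CHO-cell membranes expressing human M4 with 1.5 nM [3H]N-methylscopolamine and twelve compound concentrations ([…]). Incubation was 90 minutes at 37 °C in 50 mM HEPES, 100 mM NaCl, 5 mM MgCl2, 1 mM EDTA, pH 7.4. Bound ligand was collected by filtration onto PEI-treated glass fibre for Ki.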

Row | Structure (SMILES) | Ki
1 | C[C@@H]1CN(c2ncc(C(F)(F)F)cn2)C[C@H](C)N1C(=O)OC1(C)CC2(CN(Cc3ccccc3)C2)C1 [Compound 352, 2-benzyl-6-methyl-2-azaspiro[3.3]heptan-6-yl (2R,6S)-2,6-dimethyl-4-[5-(trifluoromethyl)pyrimidin-2-yl]piperazine-1-carboxylate] | 0.1 to 1 µM
2 | C[C@@H]1CN(c2cnc(C(F)(F)F)cn2)C[C@H](C)N1C(=O)OC1(C)CC2(CN(Cc3ccccc3)C2)C1 [Compound 353, 2-benzyl-6-methyl-2-azaspiro[3.3]heptan-6-yl (2R,6S)-2,6-dimethyl-4-[5-(trifluoromethyl)pyrazin-2-yl]piperazine-1-carboxylate] | 0.01 to 0.1 µM
3 | C[C@@H]1CN(c2ncc(C(F)(F)F)cn2)C[C@@H](C)N1C(=O)OC1(C)CC2(CN(Cc3ccccc3)C2)C1 [Compound 355, 2-benzyl-6-methyl-2-azaspiro[3.3]heptan-6-yl (2R,6R)-2,6-dimethyl-4-[5-(trifluoromethyl)pyrimidin-2-yl]piperazine-1-carboxylate] | 0.01 to 0.1 µM
4 | C[C@@H]1CN(c2cnc(C(F)(F)F)cn2)C[C@@H](C)N1C(=O)OC1(C)CC2(CN(Cc3ccccc3)C2)C1 [Compound 356, 2-benzyl-6-methyl-2-azaspiro[3.3]heptan-6-yl (2R,6R)-2,6-dimethyl-4-[5-(trifluoromethyl)pyrazin-2-yl]piperazine-1-carboxylate] | 0.01 to 0.1 µM
5 | C[C@@H]1CN(c2ncc(C(F)(F)F)cn2)[C@@H](C)CN1C(=O)OC1(C)CC2(CN(Cc3ccccc3)C2)C1 [Compound 358, 2-benzyl-6-methyl-2-azaspiro[3.3]heptan-6-yl (2R,5S)-2,5-dimethyl-4-[5-(trifluoromethyl)pyrimidin-2-yl]piperazine-1-carboxylate] | < 0.01 µM
6 | [2H]c1c([2H])c([2H])c(C([2H])([2H])N2CC3(CC(OC(=O)N4C[C@H](C)N(c5cnc(C(F)(F)F)cn5)C[C@H]4C)C3)C2)c([2H])c1[2H] [Compound 361, 2-[(^2H5)phenyl(^2H2)methyl]-2-azaspiro[3.3]heptan-6-yl (2R,5S)-2,5-dimethyl-4-[5-(trifluoromethyl)pyrazin-2-yl]piperazine-1-carboxylate] | 0.01 to 0.1 µM
7 | C[C@@H]1CN(c2cnc3cc(F)ccc3n2)[C@@H](C)CN1C(=O)OC1CC2(C1)CN(Cc1ccccc1)C2 [Compound 363, 2-benzyl-2-azaspiro[3.3]heptan-6-yl (2R,5S)-4-(6-fluoroquinoxalin-2-yl)-2,5-dimethylpiperazine-1-carboxylate] | 0.01 to 0.1 µM
8 | C[C@@H]1CN(c2nc3ccc(C(F)(F)F)cc3s2)C[C@H](C)N1C(=O)OC1CC2(C1)CN(Cc1ccccc1)C2 [Compound 364, 2-benzyl-2-azaspiro[3.3]heptan-6-yl (2R,6S)-2,6-dimethyl-4-[6-(trifluoromethyl)-1,3-benzothiazol-2-yl]piperazine-1-carboxylate] | < 0.01 µM
9 | C[C@@H]1CN(c2nc3cc(C(F)(F)F)cnc3s2)C[C@H](C)N1C(=O)OC1CC2(C1)CN(Cc1ccccc1)C2 [Compound 365, 2-benzyl-2-azaspiro[3.3]heptan-6-yl (2R,6S)-2,6-dimethyl-4-[6-(trifluoromethyl)-[1,3]thiazolo[5,4-b]pyridin-2-yl]piperazine-1-carboxylate] | < 0.01 µM
10 | C[C@@H]1CN(c2nc3cc(C(F)(F)F)cnc3s2)C[C@@H](C)N1C(=O)OC1CC2(C1)CN(Cc1ccccc1)C2 [Compound 366, 2-benzyl-2-azaspiro[3.3]heptan-6-yl (2R,6R)-2,6-dimethyl-4-[6-(trifluoromethyl)-[1,3]thiazolo[5,4-b]pyridin-2-yl]piperazine-1-carboxylate] | 0.01 to 0.1 µM
11 | C[C@@H]1CN(c2nc3cc(C(F)(F)F)cnc3s2)[C@@H](C)CN1C(=O)OC1CC2(C1)CN(Cc1ccccc1)C2 [Compound 367, 2-benzyl-2-azaspiro[3.3]heptan-6-yl (2R,5S)-2,5-dimethyl-4-[6-(trifluoromethyl)-[1,3]thiazolo[4,3-b]pyridin-2-yl]piperazine-1-carboxylate] | < 0.01 µM
